From the METLIN SMRT retention time set (Domingo-Almenara et al. 2019) come the findings set out here.

The series is described as follows: gradient 5% acetonitrile 3 min, to 50% in 2 min, to 85% in 15 min, held 3 min, 100 µL/min. Particulars: column: Zorbax Extend-C18 2.1 x 50 mm; eluents: water / acetonitrile, 0.1% formic acid. The procedure, abridged:
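Mixtures of ~100 pure standards were chromatographed on a Zorbax Extend-C18 column (2.1 × 50 mm, 1.8 μm) at 100 μL/min using water and acetonitrile, each with 0.1% formic acid. Detection used a quadrupole time-of-flight mass spectrometer in positive and negative ionization mode, and data collection spanned 3 months. Retention time was obtained from adduct peaks picked computationally and each checked manually.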
`CNC(=O)C1CCN(S(=O)(=O)Cc2ccccc2)CC1` yielded an RP-LC retention time of 655 s. `O=C(Cc1cccs1)N1CCN(S(=O)(=O)c2cc(-c3noc(C4CCC4)n3)cs2)CC1` had an RP-LC retention time of 1010 s. The molecule `CN(Cc1ccccc1)C(=O)c1cn(-c2cc(-c3nc(C(C)(C)C)no3)ccn2)cn1` yielded an RP-LC retention time of 1050 s.

As to `COc1cccc(NC(=O)C2(C)Oc3cccnc3N(C)C2=O)c1` (centres undefined), the RP-LC retention time is 808 s. Molecule `CSc1ccccc1CN1CCC(CNC(=O)c2cc(=O)c3ccccc3o2)CC1` had an RP-LC retention time of 564 s.

Molecule `Cc1cccc(NC(=O)N2[C@H]3CC[C@@H]2c2cnc(-c4ccccc4)nc2C3)c1` came in with an RP-LC retention time of 982 s. On to `CCOc1ccc(C2Cn3nnc(-c4nc(-c5ccccc5OC)no4)c3CO2)cc1` (centres undefined), for which the RP-LC retention time came out at 1090 s. In the case of `COc1ccc(-c2cn3c(CC(=O)NCc4cccc(Br)c4)csc3n2)cc1` it was 811 s. In the case of `COc1ccc(OCc2nc(CCN(C)C(=O)COc3ccccc3)no2)cc1` it was 852 s.

For the molecule `Cc1ccc(-n2c(N3CCC(C(=O)NC(C)c4ccc(F)cc4)CC3)nc3ccsc3c2=O)cc1` (centres undefined), the RP-LC retention time was 1010 s. Then `CCc1ccc(CNC(=O)c2csc(C(=O)NC)n2)cc1`, with 808 s; and `COCC1CN(C(C)=O)CC12CCN(C(=O)C1CC=CCC1)CC2` (centres undefined), with 671 s; and `Cc1ccc(CNC(=O)c2csc(-c3ccc(N4CCCC4)nc3)n2)o1`, with 679 s.

`Cc1nn(-c2ccc(C(=O)NCc3cc(F)cc(F)c3)cn2)c(C)c1C` returned an RP-LC retention time of 918 s.

`Cc1ccc(-c2cc3c(=O)n(Cc4nc(-c5cccc(Br)c5)no4)ncn3n2)c(C)c1` yielded an RP-LC retention time of 1320 s. `CCCn1cnc2cc(CNC(=O)c3ccc(C(F)(F)F)cc3)ccc21` showed an RP-LC retention time of 674 s.

Consider `c1ccc(-c2nc3ccccc3s2)nc1`, for which the RP-LC retention time is 1010 s.

Take `Cc1ccc(-n2c(=O)n(CC(=O)NCCN3CCCCC3)c3cccnc32)cc1`: the RP-LC retention time stood at 616 s. In the case of `O=C(c1cc2ccccc2o1)N1CCCC(c2nnc(C(F)(F)F)o2)C1` (centres undefined) it was 872 s; in that of `O=S(=O)(c1cc(-c2ccno2)cs1)N1CCN(c2ncccn2)CC1`, 843 s. Then `CCc1noc(C2(NC(=O)C(CC)c3ccccc3)CCCCC2)n1` (centres undefined), with 1090 s; and `COc1ccc(C)cc1NC(=O)Cn1nc2cc(-c3ccccn3)nc(C)n2c1=O`, with 804 s. In turn, `CC(C)c1cc(C(=O)Nc2ccccc2)nn1C1CCS(=O)(=O)C1` (centres undefined) had an RP-LC retention time of 845 s. Then `Cc1cc(F)ccc1NC(=O)C1CCN(S(=O)(=O)c2ccc3c(c2)sc(=O)n3C)CC1`, with 844 s. `COC(=O)N1CCc2ccccc2C1C(=O)NCCCn1ccnc1` (centres undefined): the RP-LC retention time came out at 556 s. In the case of `Cc1ccc(C)c(NC(=O)c2cc(C(C)C)n3nccc3n2)c1` it was 1240 s. In the case of `Cc1ccc(NC(=O)N2CCCC2c2nncn2-c2ccccc2)c(Cl)c1` (centres undefined) it was 794 s; in that of `Cc1ccc2nc(Nc3nccc(C)n3)nc(C)c2c1`, 616 s; in that of `CC1CCN(c2cc(-n3cnc(C(=O)N4CCN(C5CCCCC5)CC4)c3)ncn2)CC1`, 597 s. In the case of `COc1ccc(-c2ccc(=O)n(Cc3nc(-c4ccc(F)cc4)no3)n2)cc1OC` it was 892 s; in that of `O=C(NCCN1CCOCC1)c1ccc(-c2ccc(N3CCCCC3)nc2)cc1`, 557 s; in that of `CC1=NS(=O)(=O)N(Cc2ccccc2)C=C1C(=O)OCc1ccc(Cl)cc1`, 1160 s. `CNC(=O)c1ccc2c(c1)CCCN2C(=O)c1ccc(F)cc1` returned an RP-LC retention time of 698 s.

`COc1ccc(N2CCN(C(=O)C3CCCN(c4cnc5nccnc5c4)C3)CC2)cc1` (centres undefined) gave an RP-LC retention time of 737 s. Then `CC1CCCCN1CCNC(=O)CCCn1c2ccccc2c2cnn(C)c(=O)c21` (centres undefined), with 632 s. Then `CCOC(=O)c1c(CN2CCOCC2)n(C)c2ccc(O)cc12`, with 578 s; and `Cc1nc(CCNC(=O)C2CCN(S(=O)(=O)c3ccc(CC(C)C)cc3)CC2)cs1`, with 917 s; and `O=c1c2scc(-c3ccc(Cl)cc3)c2ncn1Cc1cc(=O)n2ccccc2n1`, with 878 s. In the case of `CCc1nnc([C@@H]2CC(F)(F)CN2C(=O)Cc2c(C)noc2C)o1` it was 681 s. Consider `CCc1nn2c(CNS(=O)(=O)c3ccccc3C)c(-c3ccccc3)nc2s1`, for which the RP-LC retention time was determined as 921 s. In turn, `COCCCNC(=O)CN1C(=O)CCn2nc(-c3cn(C)c4ccccc34)cc21` showed an RP-LC retention time of 685 s.

For the molecule `COc1cc(NC(=O)NCCc2nc3cccnc3n2C2CCCCC2)cc(OC)c1OC`, the RP-LC retention time is 693 s. Then `Cc1ccc(CN2CC(=O)N(c3ccccc3)[C@@H]3CS(=O)(=O)C[C@@H]32)cc1`, with 800 s. In the case of `COc1cc(Cl)ccc1-c1nc(-c2cccc(-c3ccnn3C)c2)no1` it was 1190 s; in that of `COCc1cc(=O)n(CC(=O)NCc2ccc(F)c(Cl)c2)c(N)n1`, 625 s.

With `Cc1csc(-c2cc(S(=O)(=O)N3CCN(c4ccccc4)CC3)c(C)s2)n1`, the RP-LC retention time was determined as 1160 s.

Take `COCCCNC(=O)CCCn1c(=O)c2cccn2c2ccccc21`: the RP-LC retention time turned out to be 682 s. In the case of `COc1ccccc1-c1nc(Cc2noc(-c3cccc(F)c3)n2)c(C)o1` it was 1080 s; in that of `Cc1ccc2c(c1)N(CCCC(=O)N1CCN(c3cc(=O)n(C)c(=O)n3C)CC1)C(=O)CO2`, 700 s; in that of `CSc1ccc(-c2noc(Cn3nc(-c4ccccc4Cl)ccc3=O)n2)cc1`, 1030 s. Then `CCc1nc(-c2csc(S(=O)(=O)N3CCC(C(=O)Nc4ccc(C)cc4C)CC3)c2)no1`, with 1090 s. Then `CCOc1ccc(CNC(=O)c2ccc3c(c2)NC(=O)C2CCCCN32)cc1OC` (centres undefined), with 747 s; and `Cc1ccc(-c2nc(Cn3cccc3C(=O)NCc3cccs3)no2)cc1`, with 1040 s.

The molecule `O=C(Nc1ccc(-n2cnc(C(=O)N3CCC4(CC3)OCCO4)c2)nc1)C1CC1` came in with an RP-LC retention time of 631 s. In the case of `CC(NC(=O)C1CCN(c2cncnc2N2CCCC2)CC1)c1ccccc1` (centres undefined) it was 660 s; in that of `Cc1cccc(NC(=O)N2CCc3nc(-c4ccc(F)cc4)ncc3C2)c1C`, 974 s; in that of `COC(=O)c1cccc(-c2nc(C3CC(=O)N(c4ccc(Cl)cc4)C3)no2)c1` (centres undefined), 1030 s.

The molecule `Cc1cc2nn(CC(=O)Nc3ccc(F)c(F)c3)c(=O)n2c(Nc2ccc(F)cc2)n1` returned an RP-LC retention time of 1020 s. Then `Cc1nc(C)c(C(=O)NCc2ccc3c(c2)ncn3C(C)C)s1`, with 568 s. In the case of `CCC(C)NC(=O)c1nccnc1NC(=O)c1ccc(C)cc1` (centres undefined) it was 990 s; in that of `Cc1nnc2c(=O)n(CC(=O)NCc3ccc(Cl)cc3)c3cccnc3n12`, 703 s.

`O=C(NCc1cccc(F)c1)N1C[C@@H]2C[C@H](NS(=O)(=O)c3cccnc3)[C@H]1C2`: the RP-LC retention time amounted to 688 s. In turn, `COc1cc(CNC(=O)c2nc(CCS(=O)(=O)c3ccc(C)cc3)no2)cc(OC)c1OC` yielded an RP-LC retention time of 825 s. `O=C1CC(c2noc(-c3cc(F)cc(F)c3)n2)CN1c1ccc(Cl)cc1` (centres undefined) displayed an RP-LC retention time of 1100 s.

The molecule `Cc1cc(C)n2nc(SCC(=O)NCc3ccc(F)cc3)nc2n1` returned an RP-LC retention time of 671 s.

For `COCc1cn(CC2CCCN(Cc3cn(C)c4ccc(OC)cc34)C2)nn1` (centres undefined), the RP-LC retention time was determined as 600 s. Then `Cc1ccc(-c2ncc(C(=O)Nc3ccccc3Br)c(-c3ccncc3)n2)cc1`, with 994 s; and `COc1ccc(-c2csc(NC(=O)Nc3c(F)cccc3F)n2)cc1OC`, with 770 s; and `CNC(=O)[C@@H]1CN(C(=O)Cn2c(=O)oc3ccccc32)C[C@H]1c1n[nH]c(C)n1`, with 578 s.

As to `O=C(Nc1ccc(F)c(Cl)c1)N1CCCC1c1nc(-c2ccc(F)cc2F)no1` (centres undefined), the RP-LC retention time is 1070 s. `COc1cccc(N2CCN(c3nc(C(=O)NCCN4CCOCC4)cs3)CC2)c1` registered an RP-LC retention time of 667 s. In the case of `CS(=O)(=O)N1CCC(C(=O)Nc2cccc(Cl)c2)Oc2ccccc21` (centres undefined) it was 954 s; in that of `O=C(NCCN1CCOCC1)C1CCc2sc(C(=O)N3CCOCC3)cc2C1` (centres undefined), 561 s; in that of `O=C(Cn1nc(N2CCSCC2)c2ccccc2c1=O)Nc1cccc(Cl)c1`, 1010 s. Then `O=C(C1CCN(Cc2cc3ccccc3n2Cc2ccccc2)CC1)N1CCN(C2CCCCC2)CC1`, with 634 s. In the case of `Cc1ccc(OCc2nc3c4ccccc4ncn3n2)cc1` it was 934 s; in that of `O=C(CSCc1cnn(-c2ccccc2)c1-n1cccc1)N1CCN(c2ccccn2)CC1`, 690 s; in that of `O=C(Nc1ccccc1F)C1COc2ccccc2C1` (centres undefined), 874 s.

As to `O=C(c1cn(-c2cc(-c3nc(C4CC4)no3)ccn2)cn1)N1CCCC1`, the RP-LC retention time worked out at 767 s.
